Data set [1] is described as follows: maximum tolerated dose of clofarabine. It is filed as in vivo. The note with it: species and route not given. The method, then: It may be necessary to use dosages of the active ingredient outside the ranges disclosed herein in some cases, as will be apparent to those of ordinary skill in the art, but the dosage should not fall below 0.01 mg/kg/day. The maximum tolerated doses of clofarabine is approximately 80 mg/kg per day. Furthermore, it is noted that the clinician or treating physician will know how and when to interrupt, adjust, or terminate therapy in conjunction with individual patient response.

A short description of data set [2]: degradation of the drug during dissolution, lyophilization and drying (parenteral formulation). It is filed as physicochemical. The conditions noted are these: dissolved in 1:1 tertiary butanol/Water for Injection at 5° C., lyophilized at −16° C. for 48 hours, dried at 15° C. under high vacuum for 48 hours, protected from light. The method, then:
Clofarabine, 9.86 g, is wetted/partially dissolved with 600 mL of a 9:1 mixture of tertiary butanol and Water for Injection USP which is pre-cooled to 5° C. Once the drug powder is completely wetted, dissolution is completed by the addition of 600 mL of a 1:9 mixture of tertiary butanol and Water for Injection and 766 mL of a 1:1 mixture of tertiary butanol and Water for Injection which likewise is pre-cooled to 5° C. thereby making the final solution a 1:1 mixture. The dissolution is carried out under protection from light.
The solution formed above is promptly lyophilized in a Virtis INOTOP lyophilizer at −16° C. under light protectant conditions over a period of 48 hours. The resultant lyophilized product (lyophile) is then further dried at 15° C. under high vacuum for 48 hours. […] The lyophile is packaged under sterile conditions into 30 mL vials, each containing 50 mg of drug, 50 mg of mannitol and sodium hydroxide to adjust the pH to 7.7 and standard excess to allow for vial/needle/syringe loss.

With `Nc1nc(Cl)nc2c1ncn2[C@@H]1O[C@H](CO)[C@@H](O)[C@@H]1F` [Clofarabine, 2-Chloro-9-(2-deoxy-2-fluoro-β-D-arabinofuranosyl)adenine], in data set [1], the maximum tolerated dose result is given as “approximately 80 mg/kg per day”. The “degradation of the drug” value in data set [2] is “No detectable degradation”.
